Data on seven compounds can be found in ChEMBL document CHEMBL1770103, “Synthesis and biological evaluation of dibenz[b,f][1,5]oxazocine derivatives for agonist activity at κ-opioid receptor” (Eur J Med Chem, 2011).

The structures appear in SMILES notation. Calls of active or inactive are those of the source. The rule behind the calls is not given here.

Assay [1] concerns the target Mu-type opioid receptor (Mus musculus) (UniProt P42866). As to conditions: BALB/c, Brain, Membrane, at 5 µM.
Description: Displacement of [3H]DAMGO from mu opioid receptor in BALB/c mouse brain membrane at 5 uM by liquid scintillation counting relative to control
Assay [2] has as its target Kappa-type opioid receptor (Mus musculus) (UniProt P33534). As to the kind of experiment: Displacement of [125I]dynorphin from kappa opioid receptor in BALB/c mouse brain membrane at 5 uM by liquid scintillation counting relative to control. In kind it is cell membranes. On the technique in general: In a radioligand displacement assay an active substance lowers the binding of a labelled ligand.

The target of assay [3] is Kappa-type opioid receptor (Mus musculus, UniProt P33534). As to the kind of experiment: Displacement of [125I]dynorphin from kappa opioid receptor in BALB/c mouse brain membrane by liquid scintillation counting. The class given is cell membranes.
Sequence of Kappa-type opioid receptor (P33534 whole entry): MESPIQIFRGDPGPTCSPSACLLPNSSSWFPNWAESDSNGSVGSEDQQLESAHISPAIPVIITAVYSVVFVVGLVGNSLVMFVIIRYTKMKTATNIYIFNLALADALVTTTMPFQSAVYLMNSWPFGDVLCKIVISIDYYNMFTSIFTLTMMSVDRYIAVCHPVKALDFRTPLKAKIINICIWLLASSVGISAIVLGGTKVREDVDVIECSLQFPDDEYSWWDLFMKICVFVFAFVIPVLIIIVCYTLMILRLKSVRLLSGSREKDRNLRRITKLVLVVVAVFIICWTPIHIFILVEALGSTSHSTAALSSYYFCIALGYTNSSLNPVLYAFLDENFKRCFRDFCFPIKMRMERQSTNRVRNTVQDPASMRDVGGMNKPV
For assay [4], the target named is Kappa-type opioid receptor (Rattus norvegicus) (UniProt P34975). In words: Agonist activity at kappa opioid receptor in rat C6 cells assessed as induction of ERK1/2 phosphorylation at 40 uM after 10 min by Western blot analysis in presence of KOP antagonist norBNI. In kind it is functional, cell-based. (A western blot detects proteins with antibodies after separation by electrophoresis.)
Sequence of Kappa-type opioid receptor (Rattus norvegicus) (P34975 whole entry): as the sequence (P33534 whole entry) above, with D11E, S17A, S51P, A308V counted along it

Sequence of Kappa-type opioid receptor (Mus musculus) (P33534 whole entry): as the sequence (P33534 whole entry) above
Sequence of Mu-type opioid receptor (Mus musculus) (P42866 whole entry): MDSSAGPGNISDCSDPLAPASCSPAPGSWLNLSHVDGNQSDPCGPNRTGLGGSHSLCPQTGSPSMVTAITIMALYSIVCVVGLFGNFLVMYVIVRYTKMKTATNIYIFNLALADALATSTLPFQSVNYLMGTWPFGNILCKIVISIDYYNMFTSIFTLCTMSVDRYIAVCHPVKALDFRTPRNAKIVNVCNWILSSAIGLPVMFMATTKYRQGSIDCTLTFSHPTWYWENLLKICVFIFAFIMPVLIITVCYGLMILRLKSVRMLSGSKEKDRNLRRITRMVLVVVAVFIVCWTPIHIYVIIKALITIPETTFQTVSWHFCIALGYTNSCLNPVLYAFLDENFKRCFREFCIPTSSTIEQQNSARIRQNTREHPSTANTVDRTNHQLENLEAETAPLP

The residual activity is the signal under treatment as a percentage of the control signal. For the compound `COc1cccc2c1OCc1cc3c(cc1N(c1ccccc1)C2)OCO3`, the figures for the residual activity in assay [1] and in assay [2] were 78% and 101%, respectively.

In the case of `COc1ccc(N2Cc3cccc(OC)c3OCc3cc4c(cc32)OCO4)cc1`, the results for the residual activity in assay [1] and in assay [2] were 138% and 101%, respectively.

Take `COc1ccc(N2Cc3cccc(OC)c3OCc3ccccc32)cc1`: the residual activity was 90% in assay [1] and 81% in assay [2].

For the compound `COc1ccc(N2Cc3ccccc3OCc3ccccc32)cc1`, the residual activity is 86% in assay [1] and 81% in assay [2].

The IC50 is the concentration at which inhibition is half-maximal. Lower therefore signals inhibition by little substance. With `COc1ccc2c(c1)COc1ccccc1CN2c1ccccc1`, the residual activity in assay [1] is 99%; in assay [2] it was 29%. The compound further came in with an IC50 in assay [3] of 2170 nM. In assay [4], the outcome was inactive.

Regarding `c1ccc(N2Cc3ccccc3OCc3ccccc32)cc1`, the figures for the residual activity in assay [1] and in assay [2] were 80% and 87%, respectively.

With `COc1ccccc1N1Cc2cccc(OC)c2OCc2ccccc21`, the residual activity in assay [1] turned out to be 89%; in assay [2], 119%.
